For 15 compounds, inhibition of growth results are on record in US12545639B2, “3-substituted phenylamidine compounds, preparation and use thereof” (PI INDUSTRIES LTD., priority 2019, dated 2026).

One assay relates to Alternaria solani. The assay can be described thus: Alternaria solani (early blight of tomato/potato) in vitro test, radial growth on potato dextrose agar. Type of assay: cell-based. To be noted: 168 h, 300 ppm in potato dextrose agar, 25° C., 60% relative humidity, seven days, read-out: control compared to the untreated check (radial growth).
In a further assay the test system is Pyricularia oryzae. The assay can be described thus: microbe, parasite or virus in culture. Type of assay: cell-based. The following applies: 168 h, read-out: control compared to the untreated check (radial growth).

Regarding `CCN(C)C=Nc1cc(Cl)cc(N(C)c2cccc(C(F)(F)F)n2)c1C` [Compound 289, N′-(5-chloro-2-methyl-3-(methyl(6-(trifluoromethyl)pyridin-2-yl)amino)phenyl)-N-ethyl-N-methylformimidamide], the inhibition of growth at 300 ppm in the assay with Alternaria solani and in the assay with Pyricularia oryzae was no less than 70% in each case.

As to `CCN(C)C=Nc1cc(C)cc(Nc2cc(F)cc(Cl)c2)c1Cl` [Compound 97, N′-(2-chloro-3-((3-chloro-5-fluorophenyl)amino)-5-methylphenyl)-N-ethyl-N-methylformimidamide], the inhibition of growth at 300 ppm with Pyricularia oryzae was no less than 70%.

Turning to `CCN(C)C=Nc1cc(C#N)cc(Cc2cccc(C#N)c2)c1C` [Compound 309, N′-(5-cyano-3-(3-cyanobenzyl)-2-methylphenyl)-N-ethyl-N-methylformimidamide], the inhibition of growth at 300 ppm in the assay with Pyricularia oryzae was no less than 70%.

As to `CCN(C)C=Nc1cc(Cl)cc(Cc2cccnc2)c1C` [Compound 248, N′-(5-chloro-2-methyl-3-(pyridin-3-ylmethyl)phenyl)-N-ethyl-N-methylformimidamide], in the assay on Pyricularia oryzae, the inhibition of growth at 300 ppm was no less than 70%.

Turning to `CCN(C)C=Nc1cc(C)cc(N(C)c2cc(F)cc(F)c2)c1Cl` [Compound 74, N′-(2-chloro-3-((3,5-difluorophenyl)(methyl)amino)-5-methylphenyl)-N-ethyl-N-methylformimidamide], in the assay with Alternaria solani, the inhibition of growth at 300 ppm was no less than 70%.

For the compound `CCN(C)C=Nc1cc(OC)cc(Nc2ccccc2OC)c1C` [Compound 268, N-ethyl-N′-(5-methoxy-3-((2-methoxyphenyl)amino)-2-methylphenyl)-N-methylformimidamide], in the assay on Alternaria solani, the inhibition of growth at 300 ppm is no less than 70%.

Take `CCN(C)C=Nc1cc(Cl)cc(Cc2cccc(OC(F)(F)F)c2)c1C` [Compound 251, N′-(5-chloro-2-methyl-3-(3-(trifluoromethoxy)benzyl)phenyl)-N-ethyl-N-methylformimidamide]: the inhibition of growth at 300 ppm with Pyricularia oryzae is no less than 70%.

Take `CCN(C)C=Nc1cc(C)cc(N(C)c2ccccn2)c1Cl` [Compound 107, N′-(2-chloro-5-methyl-3-(methyl(pyridin-2-yl)amino)phenyl)-N-ethyl-N-methylformimidamide]: the inhibition of growth at 300 ppm in the assay with Pyricularia oryzae was no less than 70%.

`CCN(C)C=Nc1cc(Cl)cc(N(C)c2ccc(OC)c(F)c2)c1C` [Compound 267, N′-(5-chloro-3-((3-fluoro-4-methoxyphenyl)(methyl)amino)-2-methylphenyl)-N-ethyl-N-methylformimidamide]: in the assay with Pyricularia oryzae, the inhibition of growth at 300 ppm was no less than 70%.

Consider `CCc1cccc(Nc2cc(F)cc(N=CN(C)CC)c2C)n1` [Compound 227, N-ethyl-N′-(3-((6-ethylpyridin-2-yl)amino)-5-fluoro-2-methylphenyl)-N-methylformimidamide], for which, in the assay with Alternaria solani, the inhibition of growth at 300 ppm is no less than 70%.

For the compound `CCN(C)C=Nc1cc(OC)cc(Nc2ccc(OC)c(F)c2)c1C` [Compound 269, N-ethyl-N′-(3-((3-fluoro-4-methoxyphenyl)amino)-5-methoxy-2-methylphenyl)-N-methylformimidamide], the inhibition of growth at 300 ppm in the assay on Alternaria solani is no less than 70%.

With `CCN(C)C=Nc1cc(Cl)cc(Cc2cccc(C#N)c2)c1C` [Compound 250, N′-(5-chloro-3-(3-cyanobenzyl)-2-methylphenyl)-N-ethyl-N-methylformimidamide], in the assay with Pyricularia oryzae, the inhibition of growth at 300 ppm was no less than 70%.

In the case of `CCN(C)C=Nc1cc(Cl)cc(Cc2ccc(SC)cc2)c1C` [Compound 252, N′-(5-chloro-2-methyl-3-(4-(methylthio)benzyl)phenyl)-N-ethyl-N-methylformimidamide], in the assay with Pyricularia oryzae, the inhibition of growth at 300 ppm is no less than 70%.

As to `CCN(C)C=Nc1cc(C#N)cc(Cc2cccc(Br)c2)c1C` [Compound 313, N′-(3-(3-bromobenzyl)-5-cyano-2-methylphenyl)-N-ethyl-N-methylformimidamide], in the assay on Pyricularia oryzae, the inhibition of growth at 300 ppm was no less than 70%.

Take `CCN(C)C=Nc1cc(Cl)cc(Cc2ccc(C(F)(F)F)cc2)c1C` [Compound 249, N′-(5-chloro-2-methyl-3-(4-(trifluoromethyl)benzyl)phenyl)-N-ethyl-N-methylformimidamide]: the inhibition of growth at 300 ppm in the assay on Pyricularia oryzae was no less than 70%.
